Measured values: ChEMBL document CHEMBL3885861, “Open TG-GATES”

Organism: Rattus norvegicus
Test: Open TG-GATES - Regimen: Single
Assay type: toxicity, organism-based, Sprague-Dawley
Set-up: regimen Single, gender Male, age 6 weeks
Settings: in vivo, po, 0 mg/kg, route gavage, dose level Control; for APTT / Bas / Eos / Fbg / Hb / Ht / Lym / MCH / MCHC / MCV / Mono / Neu / PT / Plat / RBC / Ret / WBC: tissue Blood; for KIDNEY_L / KIDNEY_R / KIDNEY_TOTAL: tissue Kidney; for LIVER: tissue Liver

CC(=O)N1CCN(c2ccc(OCC3COC(Cn4ccnc4)(c4ccc(Cl)cc4Cl)O3)cc2)CC1 (stereo not given) [KETOCONAZOLE]
TERMINAL_BW (3 h): 204 g | APTT (3 h): 20.5 s | Bas (3 h): 0% | Eos (3 h): 0.8% | Fbg (3 h): 282.4 mg/dL | Hb (3 h): 12.8 g/dL | Ht (3 h): 38.4% | Lym (3 h): 76.4% | MCH (3 h): 21.5 pg | MCHC (3 h): 33.4% | MCV (3 h): 64.4 fL | Mono (3 h): 1.6% | Neu (3 h): 19.8% | PT (3 h): 16.9 s | Plat (3 h): 117 x10_4/uL | RBC (3 h): 596.2 x10_4/ul | Ret (3 h): 8.8% | WBC (3 h): 73.4 x10_2/uL | KIDNEY_L (3 h): 0.9 g | KIDNEY_R (3 h): 0.9 g | KIDNEY_TOTAL (3 h): 1.9 g | LIVER (3 h): 9.8 g | ALP (3 h, tissue Plasma): 1856.6 IU/L | AST (3 h, tissue Plasma): 76.2 IU/L | BUN (3 h, tissue Plasma): 13.2 mg/dL | CRE (3 h, tissue Plasma): 0.2 mg/dL | Ca (3 h, tissue Plasma): 11 mg/dL | Cl (3 h, tissue Plasma): 104.8 meq/L | DBIL (3 h, tissue Plasma): 0.004 mg/dL | GLC (3 h, tissue Plasma): 175.4 mg/dL | IP (3 h, tissue Plasma): 7.9 mg/dL | LDH (3 h, tissue Plasma): 167.6 IU/L | Na (3 h, tissue Plasma): 141.8 meq/L | PL (3 h, tissue Plasma): 135 mg/dL | RALB (3 h, tissue Plasma): 2.9 g/dL | TBIL (3 h, tissue Plasma): 0.016 mg/dL | TC (3 h, tissue Plasma): 74.8 mg/dL | TG (3 h, tissue Plasma): 63.2 mg/dL | TP (3 h, tissue Plasma): 5.4 g/dL | gamma-GTP (3 h, tissue Plasma): 1 IU/L | TERMINAL_BW (6 h): 204.2 g | APTT (6 h): 21.3 s | Bas (6 h): 0% | Eos (6 h): 0.8% | Fbg (6 h): 293.6 mg/dL | Hb (6 h): 13.2 g/dL | Ht (6 h): 39.7% | Lym (6 h): 83.2% | MCH (6 h): 21.5 pg | MCHC (6 h): 33.2% | MCV (6 h): 64.7 fL | Mono (6 h): 1.8% | Neu (6 h): 13.4% | PT (6 h): 16.9 s | Plat (6 h): 122.1 x10_4/uL | RBC (6 h): 613.4 x10_4/ul | Ret (6 h): 8.4% | WBC (6 h): 78.2 x10_2/uL | KIDNEY_L (6 h): 1 g | KIDNEY_R (6 h): 1 g | KIDNEY_TOTAL (6 h): 1.9 g | LIVER (6 h): 9.1 g | ALP (6 h, tissue Plasma): 1433 IU/L | AST (6 h, tissue Plasma): 71 IU/L | BUN (6 h, tissue Plasma): 9.6 mg/dL | CRE (6 h, tissue Plasma): 0.2 mg/dL | Ca (6 h, tissue Plasma): 10.8 mg/dL | Cl (6 h, tissue Plasma): 105.6 meq/L | DBIL (6 h, tissue Plasma): 0 mg/dL | GLC (6 h, tissue Plasma): 176.8 mg/dL | IP (6 h, tissue Plasma): 8.4 mg/dL | LDH (6 h, tissue Plasma): 197.4 IU/L | Na (6 h, tissue Plasma): 141.2 meq/L | PL (6 h, tissue Plasma): 124.2 mg/dL | RALB (6 h, tissue Plasma): 2.9 g/dL | TBIL (6 h, tissue Plasma): 0.022 mg/dL | TC (6 h, tissue Plasma): 67.6 mg/dL | TG (6 h, tissue Plasma): 47.6 mg/dL | TP (6 h, tissue Plasma): 5.4 g/dL | gamma-GTP (6 h, tissue Plasma): 1 IU/L | TERMINAL_BW (9 h): 201.8 g | APTT (9 h): 21.3 s | Bas (9 h): 0% | Eos (9 h): 1.2% | Fbg (9 h): 294.4 mg/dL | Hb (9 h): 13 g/dL | Ht (9 h): 38.9% | Lym (9 h): 75% | MCH (9 h): 21.1 pg | MCHC (9 h): 33.3% | MCV (9 h): 63.3 fL | Mono (9 h): 1.8% | Neu (9 h): 21.4% | PT (9 h): 16.4 s | Plat (9 h): 138.7 x10_4/uL | RBC (9 h): 615.6 x10_4/ul | Ret (9 h): 7.7% | WBC (9 h): 69.1 x10_2/uL | KIDNEY_L (9 h): 1 g | KIDNEY_R (9 h): 1 g | KIDNEY_TOTAL (9 h): 1.9 g | LIVER (9 h): 8.6 g | ALP (9 h, tissue Plasma): 1580.4 IU/L | AST (9 h, tissue Plasma): 75 IU/L | BUN (9 h, tissue Plasma): 10.2 mg/dL | CRE (9 h, tissue Plasma): 0.2 mg/dL | Ca (9 h, tissue Plasma): 10.4 mg/dL | Cl (9 h, tissue Plasma): 106 meq/L | DBIL (9 h, tissue Plasma): 0.008 mg/dL | GLC (9 h, tissue Plasma): 180.4 mg/dL | IP (9 h, tissue Plasma): 9.5 mg/dL | LDH (9 h, tissue Plasma): 227.2 IU/L | Na (9 h, tissue Plasma): 142.2 meq/L | PL (9 h, tissue Plasma): 125.6 mg/dL | RALB (9 h, tissue Plasma): 3.1 g/dL | TBIL (9 h, tissue Plasma): 0.026 mg/dL | TC (9 h, tissue Plasma): 67.2 mg/dL | TG (9 h, tissue Plasma): 52.6 mg/dL | TP (9 h, tissue Plasma): 5.5 g/dL | gamma-GTP (9 h, tissue Plasma): 1 IU/L | TERMINAL_BW (24 h): 213.9 g | APTT (24 h): 19.8 s | Bas (24 h): 0% | Eos (24 h): 0.8% | Fbg (24 h): 307.2 mg/dL | Hb (24 h): 13.3 g/dL | Ht (24 h): 38.9% | Lym (24 h): 77.6% | MCH (24 h): 21.8 pg | MCHC (24 h): 34.2% | MCV (24 h): 63.9 fL | Mono (24 h): 2% | Neu (24 h): 19% | PT (24 h): 16.7 s | Plat (24 h): 117.4 x10_4/uL | RBC (24 h): 609 x10_4/ul | Ret (24 h): 7.5% | WBC (24 h): 70.3 x10_2/uL | KIDNEY_L (24 h): 1 g | KIDNEY_R (24 h): 1 g | KIDNEY_TOTAL (24 h): 2 g | LIVER (24 h): 10.4 g | ALP (24 h, tissue Plasma): 1980.8 IU/L | ALT (24 h, tissue Plasma): 44 IU/L | AST (24 h, tissue Plasma): 73.2 IU/L | BUN (24 h, tissue Plasma): 16.4 mg/dL | CRE (24 h, tissue Plasma): 0.2 mg/dL | Ca (24 h, tissue Plasma): 10.7 mg/dL | Cl (24 h, tissue Plasma): 107.2 meq/L | DBIL (24 h, tissue Plasma): 0 mg/dL | GLC (24 h, tissue Plasma): 185.6 mg/dL | IP (24 h, tissue Plasma): 6.5 mg/dL | LDH (24 h, tissue Plasma): 211.2 IU/L | Na (24 h, tissue Plasma): 142.2 meq/L | PL (24 h, tissue Plasma): 147 mg/dL | RALB (24 h, tissue Plasma): 3.1 g/dL | TBIL (24 h, tissue Plasma): 0.002 mg/dL | TC (24 h, tissue Plasma): 76.6 mg/dL | TG (24 h, tissue Plasma): 107.6 mg/dL | TP (24 h, tissue Plasma): 5.6 g/dL
